In one experiment the target is T1, Human plasma kallikrein (Homo sapiens, UniProt P03952).
T1 construct: yields a heavy chain (371 amino acids) and a light chain (248 amino acids); The active site of plasma kallikrein is contained in the light chain; purchased Enzyme Research Laboratories
Kind of experiment: Plasma Kallikrein Assay. The class given is biochemical. To be noted: purified Human plasma kallikrein 0.5 nM, substrate Acetyl-K-P-R-AFC, HEPES pH 7.4; read-out: PKal IC50. In outline: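 Purified human plasma kallikrein at 0.5 nM final with substrate Acetyl-K-P-R-AFC at […], in 50 mM HEPES pH 7.4, 150 mM NaCl, 5 mM CaCl2, 0.1% PEG 8000, at rt or 37° C after enzyme-inhibitor equilibration. IC50 from four-parameter logistic fit of fluorescence rate; Ki via Cheng-Prusoff.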

Another experiment deals with human factor XIa (Homo sapiens, UniProt P03951). Put plainly: Factor XIa Assay. The class given is biochemical. To be noted: human factor XIa 0.04 nM, substrate GPR-AFC, 30 min pre-incubation, 25° C., pH 7.4; read-out: FXIa IC50.

Molecules are shown by their SMILES.

human factor XIa, sequence (P03951 388-625 limits assumed): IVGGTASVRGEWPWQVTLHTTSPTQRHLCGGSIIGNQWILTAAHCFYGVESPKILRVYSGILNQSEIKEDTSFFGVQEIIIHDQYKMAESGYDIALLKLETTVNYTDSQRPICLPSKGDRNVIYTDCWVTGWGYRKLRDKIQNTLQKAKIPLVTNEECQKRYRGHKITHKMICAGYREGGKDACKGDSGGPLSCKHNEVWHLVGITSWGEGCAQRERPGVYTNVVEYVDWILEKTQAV
human factor XIa, sequence (P03951 19-387 partner limits assumed): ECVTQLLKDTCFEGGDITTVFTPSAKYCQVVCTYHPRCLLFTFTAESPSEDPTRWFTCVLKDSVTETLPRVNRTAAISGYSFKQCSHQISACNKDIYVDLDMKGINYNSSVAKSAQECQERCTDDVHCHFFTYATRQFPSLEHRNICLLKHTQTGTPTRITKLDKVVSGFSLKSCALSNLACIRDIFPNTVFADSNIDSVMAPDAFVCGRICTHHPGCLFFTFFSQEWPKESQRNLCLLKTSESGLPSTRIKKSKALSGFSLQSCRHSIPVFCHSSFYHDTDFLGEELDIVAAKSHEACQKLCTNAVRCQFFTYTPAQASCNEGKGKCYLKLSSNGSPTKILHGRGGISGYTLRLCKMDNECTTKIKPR
T1 sequence (P03952 391-638 limits assumed): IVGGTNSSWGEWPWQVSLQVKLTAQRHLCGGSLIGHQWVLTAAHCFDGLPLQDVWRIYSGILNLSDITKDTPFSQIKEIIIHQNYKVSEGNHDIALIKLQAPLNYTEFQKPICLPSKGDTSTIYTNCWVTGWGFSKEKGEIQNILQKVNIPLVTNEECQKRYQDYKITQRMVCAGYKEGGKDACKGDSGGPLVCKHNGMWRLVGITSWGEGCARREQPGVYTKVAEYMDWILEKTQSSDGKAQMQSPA
T1 sequence (P03952 20-390 partner limits assumed): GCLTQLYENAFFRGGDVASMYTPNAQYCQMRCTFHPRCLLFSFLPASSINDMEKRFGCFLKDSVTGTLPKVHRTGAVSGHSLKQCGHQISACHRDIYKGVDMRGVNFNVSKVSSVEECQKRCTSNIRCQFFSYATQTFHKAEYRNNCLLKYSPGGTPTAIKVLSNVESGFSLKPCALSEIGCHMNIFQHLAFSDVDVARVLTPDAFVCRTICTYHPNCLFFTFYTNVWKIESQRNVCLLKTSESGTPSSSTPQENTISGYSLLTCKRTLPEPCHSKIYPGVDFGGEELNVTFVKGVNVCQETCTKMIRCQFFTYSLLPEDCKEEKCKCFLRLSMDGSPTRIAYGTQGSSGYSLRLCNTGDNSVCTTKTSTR

Usually IC50 stands for the concentration at which inhibition is half-maximal. Regarding `Nc1c(C(=O)N2CCC[C@@]3(C2)OC(=O)Nc2ccc(Cl)c(F)c23)cnn1-c1ccc2cn[nH]c2c1` [Example 59, (R)-1'-(5-Amino-1-(1H-indazol-6-yl)-1H-pyrazole-4-carbonyl)-6-chloro-5-fluorospiro[benzo[d][1,3]oxazine-4,3'-piperidin]-2(1H)-one], the values for the IC50 on Human plasma kallikrein and on human factor XIa were 25.7 nM and 1160 nM, respectively.

Regarding `Nc1c(C(=O)N2CCC[C@@]3(C2)OC(=O)Nc2ccc(Cl)c(F)c23)cnn1-c1ccnc2ccc(F)cc12` [Example 60, (R)-1'-(5-Amino-1-(6-fluoroquinolin-4-y1)-1H-pyrazole-4-carbonyl)-6-chloro-5-fluorospiro[benzo[d][1,3]oxazine-4,3'-piperidin]-2(1H)-one], the IC50 at Human plasma kallikrein stood at 8 nM; at human factor XIa, 599 nM.

As for `Cc1ncccc1-n1ncc(C(=O)N2CCC[C@@]3(C2)OC(=O)Nc2ccc(Cl)c(F)c23)c1N` [Example 61, (R)-1'-(5-Amino-1-(2-methylpyridin-3-y1)-1H-pyrazole-4-carbonyl)-6-chloro-5-fluorospiro[benzo[d][1,3]oxazine-4,3'-piperidin]-2(1H)-one], the results for the IC50 on Human plasma kallikrein and at human factor XIa were 42.5 nM and 1750 nM, respectively.

For `Nc1c(C(=O)N2CCC[C@@]3(C2)OC(=O)Nc2ccc(Cl)c(F)c23)cnn1-c1ncccc1F` [Example 62, (R)-1'-(5-Amino-1-(3-fluoropyridin-2-y1)-1H-pyrazole-4-carbonyl)-6-chloro-5-fluorospiro[benzo[d][1,3]oxazine-4,3'-piperidin]-2(1H)-one], the IC50 at Human plasma kallikrein came out at 22.9 nM; on human factor XIa, 855 nM.

Take `Cc1c(CO)cccc1-n1ncc(C(=O)N2CCC[C@@]3(C2)OC(=O)Nc2ccc(Cl)c(F)c23)c1N` [Example 63, (R)-1'-(5-Amino-1-(3-(hydroxymethyl)-2-methylphenyl)-1H-pyrazole-4-carbonyl)-6-chloro-5-fluorospiro[benzo[d][1,3]oxazine-4,3'-piperidin]-2(1H)-one]: the figures for the IC50 at Human plasma kallikrein and on human factor XIa were 29 nM and 1580 nM, respectively.

With `Cc1ccccc1-n1ncc(C(=O)N2CCC[C@@]3(C2)OC(=O)Nc2ccc(Cl)c(F)c23)c1N` [Example 64, (R)-1'-(5-Amino-1-(o-toly1)-1H-pyrazole-4-carbonyl)-6-chloro-5-fluorospiro[benzo[d][1,3]oxazine-4,3'-piperidin]-2(1H)-one], the IC50 worked out at 28.1 nM at Human plasma kallikrein and 1310 nM at human factor XIa.

For `Nc1c(C(=O)N2CCC[C@@]3(C2)OC(=O)Nc2ccc(Cl)c(F)c23)cnn1-c1ccc(Cl)cc1Cl` [Example 65, (R)-1'-(5-Amino-1-(2,4-dichlorophenyl)-1H-pyrazole-4-carbonyl)-6-chloro-5-fluorospiro[benzo[d][1,3]oxazine-4,3'-piperidin]-2(1H)-one], the IC50 at Human plasma kallikrein came out at 37.5 nM; on human factor XIa, 160 nM.

Consider `Cc1ccc(-n2ncc(C(=O)N3CCC[C@@]4(C3)OC(=O)Nc3ccc(Cl)c(F)c34)c2N)c(F)c1` [Example 66, (R)-1'-(5-Amino-1-(2-fluoro-4-methylpheny1)-1H-pyrazole-4-carbonyl)-6-chloro-5-fluorospiro[benzo[d][1,3]oxazine-4,3'-piperidin]-2(1H)-one], for which the values for the IC50 on Human plasma kallikrein and on human factor XIa were 39 nM and 242 nM, respectively.

On to `CC(=O)Nc1ccc(-n2ncc(C(=O)N3CCC[C@@]4(C3)OC(=O)Nc3ccc(Cl)c(F)c34)c2N)cc1` [Example 67, (R)-N-(4-(5-Amino-4-(6-chloro-5-fluoro-2-oxo-1,2-dihydrospiro[benzo[d][1,3]oxazine-4,3'-piperidine]-1'-carbonyl)-1H-pyrazol-1-yl)phenyl)acetamide], for which the IC50 worked out at 46.2 nM on Human plasma kallikrein and 7320 nM at human factor XIa.

Take `Nc1c(C(=O)N2CCC[C@@]3(C2)OC(=O)Nc2ccc(Cl)c(F)c23)cnn1-c1cccc(C(=O)O)c1` [Example 68, (R)-3-(5-Amino-4-(6-chloro-5-fluoro-2-oxo-1,2-dihydrospiro[benzo[d][1,3]oxazine-4,3'-piperidine]-1'-carbonyl)-1H-pyrazol-1-yl)benzoic acid]: the IC50 at Human plasma kallikrein turned out to be 13.5 nM; on human factor XIa it was 1480 nM.

For `CC1(C)CN(C(=O)c2cnn(-c3ccccc3)c2N)C[C@]2(C1)OC(=O)Nc1ccc(Cl)c(F)c12` [Example 69, (R)-1'-(5-Amino-1-phenyl-1H-pyrazole-4-carbonyl)-6-chloro-5-fluoro-5',5'-dimethylspiro[benzo[d][1,3]oxazine-4,3'-piperidin]-2(1H)-one], the IC50 on Human plasma kallikrein is 41.7 nM; at human factor XIa it was 4590 nM.

In the case of `CCOC(=O)c1ccc(C)c(-n2ncc(C(=O)N3CCC[C@@]4(C3)OC(=O)Nc3ccc(Cl)c(F)c34)c2N)c1` [Example 70, Ethyl (R)-3-(5-amino-4-(6-chloro-5-fluoro-2-oxo-1,2-dihydrospiro[benzo[d][1,3]oxazine-4,3'-piperidine]-1'-carbonyl)-1H-pyrazol-1-y1)-4-methylbenzoate], the results for the IC50 at Human plasma kallikrein and on human factor XIa were 13.4 nM and 1140 nM, respectively.

Turning to `CC(=O)Nc1cccc(-n2ncc(C(=O)N3CCC[C@@]4(C3)OC(=O)Nc3ccc(Cl)c(F)c34)c2N)c1` [Example 71, (R)-N-(3-(5-Amino-4-(6-chloro-5-fluoro-2-oxo-1,2-dihydrospiro[benzo[d][1,3]oxazine-4,3'-piperidine]-1'-carbonyl)-1H-pyrazol-1-yl)phenyl)acetamide], the figures for the IC50 at Human plasma kallikrein and at human factor XIa were 36.6 nM and 4050 nM, respectively.

For the compound `Nc1c(C(=O)N2CCC[C@@]3(C2)OC(=O)Nc2ccc(Cl)c(F)c23)cnn1-c1ccncc1Cl` [Example 73, (R)-1'-(5-Amino-1-(3-chloropyridin-4-y1)-1H-pyrazole-4-carbonyl)-6-chloro-5-fluorospiro[benzo[d][1,3]oxazine-4,3'-piperidin]-2(1H)-one], the IC50 on Human plasma kallikrein was determined as 22.5 nM; on human factor XIa, 316 nM.

Take `Nc1c(C(=O)N2CCC[C@@]3(C2)OC(=O)Nc2ccc(Cl)c(F)c23)cnn1-c1ccc(C(=O)O)cc1` [Example 74, (R)-4-(5-Amino-4-(6-chloro-5-fluoro-2-oxo-1,2-dihydrospiro[benzo[d][1,3]oxazine-4,3'-piperidine]-l'-carbonyl)-1H-pyrazol-1-yl)benzoic acid]: the IC50 was 8.4 nM at Human plasma kallikrein and 378 nM on human factor XIa.

Take `Nc1c(C(=O)N2CCC[C@@]3(C2)OC(=O)Nc2ccc(Cl)c(F)c23)cnn1-c1ccc(N2CCOC2=O)cc1` [Example 75, (R)-1'-(5-Amino-1-(4-(2-oxooxazolidin-3-yl)phenyl)-1H-pyrazole-4-carbonyl)-6-chloro-5-fluorospiro[benzo[d][1,3]oxazine-4,3'-piperidin]-2(1H)-one]: the IC50 on Human plasma kallikrein was found to be 50.7 nM; at human factor XIa, 4720 nM.

For `Nc1c(C(=O)N2CCC[C@@]3(C2)OC(=O)Nc2ccc(Cl)c(F)c23)cnn1-c1cc(F)ccc1F` [Example 76, (R)-1'-(5-Amino-1-(2,5-difluorophenyl)-1H-pyrazole-4-carbonyl)-6-chloro-5-fluorospiro[benzo[d][1,3]oxazine-4,3'-piperidin]-2(1H)-one], the IC50 at Human plasma kallikrein is 29.5 nM; on human factor XIa, 1060 nM.

Consider `Nc1c(C(=O)N2CCC[C@@]3(C2)OC(=O)Nc2ccc(Cl)c(F)c23)cnn1-c1ccccc1C(F)(F)F` [Example 77, (R)-1'-(5-Amino-1-(2-(trifluoromethyl)phenyl)-1H-pyrazole-4-carbonyl)-6-chloro-5-fluorospiro[benzo[d][1,3]oxazine-4,3'-piperidin]-2(1H)-one], for which the IC50 came to 17.3 nM at Human plasma kallikrein and 399 nM at human factor XIa.

These data come from US12679848B2, “Plasma kallikrein inhibitors” (Merck Sharp & Dohme LLC, priority 2020, dated 2026).
